Test results taken from patent publication US10301280B2 (Plexxikon Inc., priority 2012, dated 2019).
pIC50: −log10 of the molar value.

Experiments:
[1] = molecular target: c-kit kinase (Homo sapiens (Human), UniProt P10721); experiment: c-Kit biochemical assay (AlphaScreen); settings: c-kit biochemical inhibitory activity
Procedure, shortened: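 AlphaScreen of biotin-(E4Y)3 (100 nM) phosphorylation by c-kit (0.1 ng) in HEPES pH 7.2, Mg/Mn, 10 μM ATP, 5% DMSO, 1 h at room temperature; variant uses 100 μM ATP, 30 nM biotin-(E4Y)10, 1 ng enzyme. PY20 acceptor/streptavidin donor signal versus 8-point concentration gives IC50.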

[2] = tested on: BaF3-FL KIT D816V or BaF3-FL KIT V560G/D816V cell line; experiment: Cell-based assays of c-Kit mutant kinase activity (cell growth, ATPlite); settings: at least one of the c-kit cell assays of Example 26
Procedure, shortened: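 IC50 derived from ATP-content luminescence (ATPlite) after three-day compound exposure at 37° C., 5% CO2. Cells: BaF3 rendered growth-dependent on full-length human KIT D816V or V560G/D816V, 1×10^4 per well, RPMI plus 10% FBS; 8 points, 1:3 steps, maximum 10 μM final, 0.2% DMSO.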

c-kit kinase, sequence (P10721 26-976): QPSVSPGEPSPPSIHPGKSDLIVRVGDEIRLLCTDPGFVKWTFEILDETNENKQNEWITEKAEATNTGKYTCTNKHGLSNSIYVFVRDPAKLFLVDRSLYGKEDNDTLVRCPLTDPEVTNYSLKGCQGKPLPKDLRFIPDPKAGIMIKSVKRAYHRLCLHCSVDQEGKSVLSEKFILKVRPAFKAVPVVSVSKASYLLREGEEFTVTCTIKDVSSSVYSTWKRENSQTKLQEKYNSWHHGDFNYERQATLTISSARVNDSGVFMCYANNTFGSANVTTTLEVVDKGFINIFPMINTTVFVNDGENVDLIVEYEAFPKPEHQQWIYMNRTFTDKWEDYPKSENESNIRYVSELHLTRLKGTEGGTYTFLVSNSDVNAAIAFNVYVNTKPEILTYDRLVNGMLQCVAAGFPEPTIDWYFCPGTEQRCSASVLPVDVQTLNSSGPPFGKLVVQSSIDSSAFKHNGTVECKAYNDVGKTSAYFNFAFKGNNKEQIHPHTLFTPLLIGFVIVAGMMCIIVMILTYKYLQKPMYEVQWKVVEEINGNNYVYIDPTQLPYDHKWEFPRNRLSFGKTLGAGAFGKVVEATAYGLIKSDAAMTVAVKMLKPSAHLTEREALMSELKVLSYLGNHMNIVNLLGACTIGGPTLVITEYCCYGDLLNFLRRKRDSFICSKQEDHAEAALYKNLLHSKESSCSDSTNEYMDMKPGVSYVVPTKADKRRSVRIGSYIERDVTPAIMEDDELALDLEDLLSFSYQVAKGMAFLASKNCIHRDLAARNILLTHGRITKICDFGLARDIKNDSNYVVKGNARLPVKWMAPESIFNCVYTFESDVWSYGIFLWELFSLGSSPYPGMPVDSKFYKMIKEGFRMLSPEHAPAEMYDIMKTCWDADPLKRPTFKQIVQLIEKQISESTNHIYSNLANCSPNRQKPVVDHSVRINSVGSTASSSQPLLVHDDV

| SMILES | IC50 [1] | pIC50 [2] |
| --- | --- | --- |
| O=C(Nc1cnc2[nH]c(-c3ccccc3)cc2c1)c1[nH]ncc1Br [P-2005, 4-bromo-N-(2-phenyl-1H-pyrrolo[2,3-b]pyridin-5-yl)-1H-pyrazole-5-carboxamide] | 1 to 10 µM | > 5.00 |
| Cc1n[nH]c(C(=O)Nc2cnc3[nH]c(-c4ccccc4)cc3c2)c1C [P-2007, 3,4-dimethyl-N-(2-phenyl-1H-pyrrolo[2,3-b]pyridin-5-yl)-1H-pyrazole-5-carboxamide] | 0.0001 to 1 µM | > 5.00 |
| Cc1[nH]nc(C(=O)Nc2cnc3[nH]c(-c4ccc(N5CCOCC5)cc4)cc3c2)c1C [P-2059, 4,5-dimethyl-N-[2-(4-morpholinophenyl)-1H-pyrrolo[2,3-b]pyridin-5-yl]-1H-pyrazole-3-carboxamide] | 0.0001 to 1 µM | > 5.00 |
| Cc1n[nH]c(C(=O)Nc2cnc3[nH]c(C4=CCN(C(=O)C5CC5)C4)cc3c2)c1Cl [P-2060, 4-chloro-N-[2-[1-(cyclopropanecarbonyl)-2,5-dihydropyrrol-3-yl]-1H-pyrrolo[2,3-b]pyridin-5-yl]-3-methyl-1H-pyrazole-5-carboxamide] | 0.0001 to 1 µM | > 5.00 |
| CC(=O)N1CC=C(c2cc3cc(NC(=O)c4[nH]nc(C)c4Cl)cnc3[nH]2)CC1 [P-2061, N-[2-(1-acetyl-3,6-dihydro-2H-pyridin-4-yl)-1H-pyrrolo[2,3-b]pyridin-5-yl]-4-chloro-3-methyl-1H-pyrazole-5-carboxamide] | 0.0001 to 1 µM | > 5.00 |
| Cc1n[nH]c(C(=O)Nc2cnc3[nH]c(C4=CCN(C(=O)N5CCOCC5)C4)cc3c2)c1Cl [P-2062, 4-chloro-3-methyl-N-[2-[1-(morpholine-4-carbonyl)-2,5-dihydropyrrol-3-yl]-1H-pyrrolo[2,3-b]pyridin-5-yl]-1H-pyrazole-5-carboxamide] | 0.0001 to 1 µM | > 5.00 |
| Cc1n[nH]c(C(=O)Nc2cnc3[nH]c(-c4cccc(N(C)C)c4)cc3c2)c1C [P-2064, N-[2-[3-(dimethylamino)phenyl]-1H-pyrrolo[2,3-b]pyridin-5-yl]-3,4-dimethyl-1H-pyrazole-5-carboxamide] | 0.0001 to 1 µM | > 5.00 |
| Cc1n[nH]c(C(=O)Nc2cnc3[nH]c(-c4c(C)noc4C)cc3c2)c1C [P-2065, N-[2-(3,5-dimethylisoxazol-4-yl)-1H-pyrrolo[2,3-b]pyridin-5-yl]-3,4-dimethyl-1H-pyrazole-5-carboxamide] | 1 to 10 µM | > 5.00 |
| CNC(=O)c1ccc(-c2cc3cc(NC(=O)c4[nH]nc(C)c4C)cnc3[nH]2)cc1 [P-2067, 3,4-dimethyl-N-[2-[4-(methylcarbamoyl)phenyl]-1H-pyrrolo[2,3-b]pyridin-5-yl]-1H-pyrazole-5-carboxamide] | 1 to 10 µM | > 5.00 |
| Cc1[nH]nc(C(=O)Nc2cnc3[nH]c(-c4ccnc(N5CCN(C)CC5)c4)cc3c2)c1C [P-2069, 4,5-dimethyl-N-[2-[2-(4-methylpiperazin-1-yl)-4-pyridyl]-1H-pyrrolo[2,3-b]pyridin-5-yl]-1H-pyrazole-3-carboxamide] | 1 to 10 µM | > 5.00 |
| Cc1[nH]nc(C(=O)Nc2cnc3[nH]c(-c4cccc(N5CCOCC5)c4)cc3c2)c1C [P-2070, 4,5-dimethyl-N-[2-(3-morpholinophenyl)-1H-pyrrolo[2,3-b]pyridin-5-yl]-1H-pyrazole-3-carboxamide] | 1 to 10 µM | > 5.00 |
| Cc1n[nH]c(C(=O)Nc2cnc3[nH]c(C4=CCN(C(=O)CN5CCOCC5)CC4)cc3c2)c1C [P-2073, 3,4-dimethyl-N-[2-[1-(2-morpholinoacetyl)-3,6-dihydro-2H-pyridin-4-yl]-1H-pyrrolo[2,3-b]pyridin-5-yl]-1H-pyrazole-5-carboxamide] | 1 to 10 µM | > 5.00 |
| Cc1n[nH]c(C(=O)Nc2cnc3[nH]c(C4=CCN(C(=O)C(O)CO)CC4)cc3c2)c1C (stereo not drawn) [P-2074, N-[2-[1-(2,3-dihydroxypropanoyl)-3,6-dihydro-2H-pyridin-4-yl]-1H-pyrrolo[2,3-b]pyridin-5-yl]-3,4-dimethyl-1H-pyrazole-5-carboxamide] | 0.0001 to 1 µM | > 5.00 |
| Cc1n[nH]c(C(=O)Nc2cnc3[nH]c(-c4cccc(N5CCCC5)c4)cc3c2)c1C [P-2079, 3,4-dimethyl-N-[2-(3-pyrrolidin-1-ylphenyl)-1H-pyrrolo[2,3-b]pyridin-5-yl]-1H-pyrazole-5-carboxamide] | 1 to 10 µM | > 5.00 |
| Cc1n[nH]c(C(=O)Nc2cnc3[nH]c(C4=CCC(N)CC4)cc3c2)c1C (stereo not drawn) [P-2080, N-[2-(4-aminocyclohexen-1-yl)-1H-pyrrolo[2,3-b]pyridin-5-yl]-3,4-dimethyl-1H-pyrazole-5-carboxamide] | 1 to 10 µM | > 5.00 |
| Cc1n[nH]c(C(=O)Nc2cnc3[nH]c(-c4ccc(C#N)c(N5CCOCC5)c4)cc3c2)c1C [P-2081, N-[2-(4-cyano-3-morpholino-phenyl)-1H-pyrrolo[2,3-b]pyridin-5-yl]-3,4-dimethyl-1H-pyrazole-5-carboxamide] | 1 to 10 µM | > 5.00 |
| Cc1n[nH]c(C(=O)Nc2cnc3[nH]c(-n4cccn4)cc3c2)c1C [P-2112, 3,4-dimethyl-N-(2-pyrazol-1-yl-1H-pyrrolo[2,3-b]pyridin-5-yl)-1H-pyrazole-5-carboxamide] | 1 to 10 µM | > 5.00 |
| Cc1cc(C(=O)Nc2cnc3[nH]c(-n4cccn4)cc3c2)[nH]n1 [P-2116, 3-methyl-N-(2-pyrazol-1-yl-1H-pyrrolo[2,3-b]pyridin-5-yl)-1H-pyrazole-5-carboxamide] | 10 to 200 µM | > 5.00 |
| Cc1n[nH]c(C(=O)Nc2cnc3[nH]c(-c4cccc(N5CCN(C(=O)C6CC6)CC5)c4)cc3c2)c1C [P-2118, N-[2-[3-[4-(cyclopropanecarbonyl)piperazin-1-yl]phenyl]-1H-pyrrolo[2,3-b]pyridin-5-yl]-3,4-dimethyl-1H-pyrazole-5-carboxamide] | 10 to 200 µM | > 5.00 |
| Cc1n[nH]c(C(=O)Nc2cnc3sc(-c4ccccc4)nc3c2)c1C [P-2144, 3,4-dimethyl-N-(2-phenylthiazolo[5,4-b]pyridin-6-yl)-1H-pyrazole-5-carboxamide] | 1 to 10 µM | > 5.00 |
| Cc1n[nH]c(C(=O)Nc2cnc3[nH]c(-c4ccc(C(=O)NC5CC5)cc4)cc3c2)c1C [P-2148, N-[2-[4-(cyclopropylcarbamoyl)phenyl]-1H-pyrrolo[2,3-b]pyridin-5-yl]-3,4-dimethyl-1H-pyrazole-5-carboxamide] | 0.0001 to 1 µM | > 5.00 |
